From ChEMBL document CHEMBL1773026, “Inhalation by design: dual pharmacology β-2 agonists/M3 antagonists for the treatment of COPD” (Bioorg Med Chem Lett, 2011)

Tests used:
[1] = target: T1, Muscarinic acetylcholine receptor M3 (Homo sapiens, UniProt P20309); test: Displacement of [3H]N-methyl Scopolamine from human muscarinic M3 receptor expressed in CHO cells by scintillation proximity assay; assay type: cell-based
Target sequence in this assay (P20309 whole entry): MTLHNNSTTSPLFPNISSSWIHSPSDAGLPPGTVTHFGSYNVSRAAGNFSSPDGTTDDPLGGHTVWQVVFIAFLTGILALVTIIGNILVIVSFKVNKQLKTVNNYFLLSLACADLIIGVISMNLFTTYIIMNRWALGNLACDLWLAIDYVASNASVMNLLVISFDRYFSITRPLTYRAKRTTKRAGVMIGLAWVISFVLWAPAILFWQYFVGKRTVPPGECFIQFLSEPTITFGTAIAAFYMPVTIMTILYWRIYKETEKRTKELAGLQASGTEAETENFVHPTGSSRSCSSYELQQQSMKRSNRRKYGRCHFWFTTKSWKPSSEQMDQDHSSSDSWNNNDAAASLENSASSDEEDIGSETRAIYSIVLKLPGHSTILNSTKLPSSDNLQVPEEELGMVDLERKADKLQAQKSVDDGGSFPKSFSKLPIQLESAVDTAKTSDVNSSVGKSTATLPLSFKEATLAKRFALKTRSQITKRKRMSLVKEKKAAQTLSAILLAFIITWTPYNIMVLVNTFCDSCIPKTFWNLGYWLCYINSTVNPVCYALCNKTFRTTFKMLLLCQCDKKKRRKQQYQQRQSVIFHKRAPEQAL

[2] = target: T2, Beta-2 adrenergic receptor (Homo sapiens, UniProt P07550); test: Agonist activity at human beta2 adrenergic receptor expressed in CHO cells assessed as stimulation of intracellular cAMP production after 30 mins of washing by wash-off assay; assay type: functional, cell-based
Target sequence in this assay (P07550 whole entry): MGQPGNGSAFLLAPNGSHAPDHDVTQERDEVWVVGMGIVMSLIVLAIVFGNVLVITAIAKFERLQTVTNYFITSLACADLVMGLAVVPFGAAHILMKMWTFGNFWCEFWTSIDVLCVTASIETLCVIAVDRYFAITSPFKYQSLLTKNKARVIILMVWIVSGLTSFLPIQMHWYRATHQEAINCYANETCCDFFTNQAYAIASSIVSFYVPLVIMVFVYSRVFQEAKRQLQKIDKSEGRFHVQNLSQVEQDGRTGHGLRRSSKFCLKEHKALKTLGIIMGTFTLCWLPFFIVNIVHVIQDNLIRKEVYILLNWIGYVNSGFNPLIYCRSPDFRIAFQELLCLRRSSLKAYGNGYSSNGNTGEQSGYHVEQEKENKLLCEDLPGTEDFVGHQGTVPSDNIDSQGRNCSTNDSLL

[3] = target: T1, Muscarinic acetylcholine receptor M3; test: Displacement of [3H]NMS from human muscarinic M3 receptor expressed in CHO cells assessed as time required to reach 50% of total [3H]NMS binding by dilution-offset methodology; assay type: cell-based
Target sequence in this assay (P20309 whole entry, looked up): as the sequence (P20309 whole entry) above

[4] = target: T2, Beta-2 adrenergic receptor; test: Ratio of EC50 for human beta2 adrenergic receptor by unwashed assay to EC50 for human beta2 adrenergic receptor expressed in CHO cells by wash-off assay; assay type: cell-based
Target sequence in this assay (P07550 whole entry, looked up): as the sequence (P07550 whole entry) above

[5] = Clearance in human liver microsomes; assay type: ADME, Microsome
[6] = AUC in rat at 2 mg/kg, iv; assay type: ADME, organism-based; set-up: dose 2 mg/kg, route intravenous; conditions: plasma
[7] = Bronchodilatory activity against electrically-stimulated contraction in guinea pig trachea assessed as concentration required for 50% bronchorelaxation activity; assay type: functional, tissue-based, Cavia porcellus
[8] = Oral bioavailability in human; assay type: ADME, organism-based; conditions: in vivo
[9] = Bronchodilatory activity against electrically-stimulated contraction in guinea pig trachea assessed as time taken for inducing 50% maximum relaxant effect; assay type: functional, Cavia porcellus
[10] = Clearance in rat at 2 mg/kg, iv; assay type: ADME, organism-based; set-up: dose 2 mg/kg, route intravenous; conditions: in vivo
[11] = target: Beta-2 adrenergic receptor (Cavia porcellus, UniProt Q8K4Z4); test: Agonist activity at adrenergic beta2 receptor in guinea pig trachea assessed as bronchorelaxation activity against histamine-induced contraction; assay type: functional
[12] = target: Muscarinic acetylcholine receptor M3 (Cavia porcellus) (UniProt Q8VH26); test: […] activity at muscarinic M3 receptor in guinea pig trachea assessed as time taken for inducing bronchorelaxation activity in presence of propranolol; assay type: functional, tissue-based
Canis familiaris [13] = species: Canis familiaris; test: Inhibition of methacholine-induced bronchoconstriction in dog assessed as duration action at 30 ug, it; assay type: functional, Canis lupus familiaris
Canis familiaris [14] = species: Canis familiaris; test: Inhibition of methacholine-induced bronchoconstriction in dog; assay type: functional, Canis lupus familiaris
[15] = target: Muscarinic acetylcholine receptor M3 (Cavia porcellus, UniProt Q8VH26); test: […] activity at muscarinic M3 receptor in guinea pig trachea assessed as bronchorelaxation activity in presence of propranolol; assay type: functional, tissue-based
Sequence of Muscarinic acetylcholine receptor M3 (Cavia porcellus, UniProt Q8VH26) (Q8VH26 whole entry): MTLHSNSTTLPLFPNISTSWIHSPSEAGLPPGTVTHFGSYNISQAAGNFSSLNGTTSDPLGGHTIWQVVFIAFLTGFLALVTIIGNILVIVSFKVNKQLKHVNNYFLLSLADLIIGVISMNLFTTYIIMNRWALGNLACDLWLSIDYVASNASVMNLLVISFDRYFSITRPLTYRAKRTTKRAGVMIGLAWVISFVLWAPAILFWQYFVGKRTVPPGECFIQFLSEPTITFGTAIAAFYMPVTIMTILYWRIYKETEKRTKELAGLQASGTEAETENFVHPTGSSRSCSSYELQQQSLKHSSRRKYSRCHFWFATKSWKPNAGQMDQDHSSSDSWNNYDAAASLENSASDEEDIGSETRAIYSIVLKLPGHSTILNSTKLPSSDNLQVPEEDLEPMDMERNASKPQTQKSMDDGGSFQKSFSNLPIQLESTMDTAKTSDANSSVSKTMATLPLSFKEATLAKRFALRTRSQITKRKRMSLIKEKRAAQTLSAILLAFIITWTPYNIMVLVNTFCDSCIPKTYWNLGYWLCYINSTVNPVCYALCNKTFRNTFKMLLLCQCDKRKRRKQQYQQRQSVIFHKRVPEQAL

Sequence of Muscarinic acetylcholine receptor M3 (Cavia porcellus) (Q8VH26 1-587): as the sequence (Q8VH26 whole entry) above
Sequence of Beta-2 adrenergic receptor (Cavia porcellus, UniProt Q8K4Z4) (Q8K4Z4 whole entry): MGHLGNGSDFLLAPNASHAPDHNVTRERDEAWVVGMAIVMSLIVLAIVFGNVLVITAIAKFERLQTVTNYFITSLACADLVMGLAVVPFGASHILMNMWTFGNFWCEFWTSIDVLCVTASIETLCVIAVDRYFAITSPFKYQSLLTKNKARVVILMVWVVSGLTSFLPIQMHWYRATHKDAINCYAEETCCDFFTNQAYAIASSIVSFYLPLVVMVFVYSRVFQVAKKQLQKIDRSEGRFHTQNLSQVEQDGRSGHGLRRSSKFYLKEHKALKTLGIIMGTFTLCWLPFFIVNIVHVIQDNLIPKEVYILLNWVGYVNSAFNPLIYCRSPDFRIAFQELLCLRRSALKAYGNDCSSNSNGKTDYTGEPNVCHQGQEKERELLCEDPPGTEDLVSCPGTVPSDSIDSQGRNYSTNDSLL

Row | Compound | Ki [1] | EC50 [2] | TIME [3] | Ratio EC50 [4] | microsomal CLint [5] | AUC [6] | EC50 [7] | bioavailability [8] | Time [9] | clearance [10] | EC50 [11] | TIME [12] | Time (Canis familiaris [13]) | ED50 (Canis familiaris [14]) | EC50 [15]
1 | CC(C)N(CC[C@H](c1ccccc1)c1cc(CCCCOc2ccc(CCNC[C@H](O)c3ccc(O)c(O)c3)cc2)ccc1O)C(C)C | 4.7 nM | 173 nM |  |  |  |  |  |  |  |  |  |  |  |  | 
2 | CC(C)N(CC[C@H](c1ccccc1)c1cc(CCCCOc2ccc(CCNC[C@H](O)c3ccc(O)c(NS(C)(=O)=O)c3)cc2)ccc1O)C(C)C | 0.634 nM | 13 nM | > 20 h | 1.9 | 67 µL/min/mg |  |  |  |  |  |  |  |  |  | 
3 | CC(C)N(CC[C@H](c1ccccc1)c1cc(CCCCOc2ccc(CCNC[C@H](O)c3ccc(O)c4[nH]c(=O)ccc34)cc2)ccc1O)C(C)C | 0.305 nM | 2.4 nM | > 20 h | 1.1 | 74 µL/min/mg | 2670 ng·h/mL | 4.1 nM | < 5% | >7.7 h | 12.6 mL/min/kg | 4 nM | > 10 h | >16 h | 30 µg | 4 nM
4 | CC(C)N(CC[C@H](c1ccccc1)c1cc(CCCNC(=O)Cc2cccc(C[C@@H](C)NC[C@H](O)c3cc(O)cc(O)c3)c2)ccc1O)C(C)C | 0.397 nM | 15 nM | 2.25 h | 0.7 | > 440 µL/min/mg |  |  |  |  |  |  |  |  |  | 
5 | CC(C)N(CC[C@H](c1ccccc1)c1cc(CCCCOCCCCCCNC[C@H](O)c2ccc(O)c(NS(C)(=O)=O)c2)ccc1O)C(C)C | 0.99 nM | 5.7 nM | > 20 h | 0.7 | 57 µL/min/mg |  |  |  |  |  |  |  |  |  | 
6 | C[C@H](Cc1cccc(CC(=O)NCc2ccc(Cl)c(Cl)c2)c1)NC[C@H](O)c1ccc(O)c(CO)c1 |  | 1.1 nM |  | 2.9 | > 440 µL/min/mg |  |  |  |  |  |  |  |  |  | 
7 | Cc1ccc(O)c([C@H](CCN(C(C)C)C(C)C)c2ccccc2)c1 [TOLTERODINE] |  |  | < 0.25 h |  | 163 µL/min/mg |  |  |  |  |  |  |  |  |  | 
8 | CC(C)N(CC[C@H](c1ccccc1)c1cc(CCCCOc2ccc(CCNC[C@H](O)c3ccc(O)c(CO)c3)cc2)ccc1O)C(C)C | 0.765 nM | 129 nM | > 20 h | 2.6 | 54 µL/min/mg |  |  |  |  |  |  |  |  |  | 
9 | CC(C)N(CC[C@H](c1ccccc1)c1cc(CCCNC(=O)Cc2cccc(CC(C)(C)NC[C@H](O)c3ccc(O)c(NS(C)(=O)=O)c3)c2)ccc1O)C(C)C | 0.276 nM | 8.1 nM | 2.77 h | 1.1 | 109 µL/min/mg |  | 1.3 nM |  | >6.5 h |  | 2.1 nM | 4.8 h |  |  | 5.3 nM
10 | CC(C)N(CC[C@H](c1ccccc1)c1cc(CCCNC(=O)CCCCCCCCCCNC[C@H](O)c2ccc(O)c(NS(C)(=O)=O)c2)ccc1O)C(C)C | 1.45 nM | 116 nM |  | 7.3 | 87 µL/min/mg |  |  |  |  |  |  |  |  |  | 
11 | CC(C)N(CC[C@H](c1ccccc1)c1cc(CCNC[C@H](O)c2ccc(O)c(NS(C)(=O)=O)c2)ccc1O)C(C)C | 6.1 nM | 10 nM | < 0.25 h | 19 |  |  |  |  |  |  |  |  |  |  | 
12 | CC(C)N(CC[C@H](c1ccccc1)c1cc(CCCNC(=O)Cc2cccc(CC(C)(C)NC[C@H](O)c3ccc(O)c(CO)c3)c2)ccc1O)C(C)C | 0.091 nM | 17 nM | 5.92 h | 2.8 | 263 µL/min/mg |  |  |  |  |  |  |  |  |  | 
